Patent US6949519B2, “Macrolide solvates” (Sandoz AG, priority 2000, dated 2005)

Key:
Format in all cases: physicochemical
[1] = Water content (K. Fischer) and X-ray powder diffraction pattern at room temperature under normal air humidity conditions
Procedure: In the following examples all temperatures are in degree Centigrade and are uncorrected. The X-ray powder diffraction pattern of azithromycin in the form of a monohydrate obtained according to the following example corresponds to that of azithromycin in the form of a monohydrate. […] Water content (% w/w) is determined by the K. Fischer
To a suspension of 20 g of azithromycin in 83 ml of water, HCl is added until dissolution occurs. The solution obtained is filtrated, in order to remove undissolved particles, and the filtrate obtained is added dropwise to 103 ml of water whilst adjusting the pH to 10 to 11 by addition of 20% NaOH at a temperature of ca. 55° C. A solid precipitates, is filtrated off, washed and dried until a water content of 4.0 to 6.5% is achieved. 18.4 g of azithromycin in the form of a monohydrate in crystalline form are obtained. Water content: 6.0% Water content after 2 days at room temperature under normal air humidity conditions: 6.3% Water content after 13 days at room temperature under normal air humidity conditions: 6.3%

[2] = Stability and comparison example: samples set out for 6 weeks at 75% relative humidity at elevated temperature; potency and degradation by HPLC, water by Karl Fischer, X-ray powder diffraction; settings: 6 weeks under normal air humidity conditions at elevated temperatures
[3] = as above; settings: for Degradation (%) / POTENCY (%): HPLC, anhydrous basis; for POTENCY (%): 75% relative humidity, temperature of 400 (so in the source); for WATER (%): Karl Fischer
Procedure: • 5.3% of water, and • 2.8% of water are set out for 6 weeks to an environment having a relative humidity of 75% at a temperature of 400. Potency (content) of azithromycin, azithromycin degradation and water content in the samples are determined in week 0, week 2, week 4 and week 6. Potency and degradation are determined on azithromycin anhydrous basis by HPLC. The water content is determined by the Karl Fischer method. Results are Obtained • for azithromycin comprising 5.3% of water as set out in TABLE 1 below, • for azithromycin comprising 2.8% of water as set out in TABLE 2 below:
The potency of azithromycin in % of each sample within the corresponding time period is set out in TABLE 1 and TABLE 2 under “Potency (%)”.
The degradation of azithromycin in % of each sample within the corresponding time period is set out in TABLE 1 and TABLE 2 under “Degradation (%).
The water content in % of each sample within the corresponding time period is indicated in TABLE 1 and TABLE 2 under “Water (%)”.

Row | SMILES | Degradation (%) ([3]; week 6, 75% humidity, 40° C.) | POTENCY (%) ([3]; week 0) | WATER (%) ([3]; week 0) | Degradation (%) ([3]; week 2, 75% humidity, 40° C.) | WATER (%) ([3]; week 2, 75% humidity, 40° C.) | Degradation (%) ([3]; week 4, 75% humidity, 40° C.) | WATER (%) ([3]; week 4, 75% humidity, 40° C.) | WATER (%) ([3]; week 6, 75% humidity, 40° C.) | POTENCY (%) ([3]; week 6) | also measured
1 | CC[C@H]1OC(=O)[C@H](C)[C@@H](O[C@H]2C[C@@](C)(OC)[C@@H](O)[C@H](C)O2)[C@H](C)[C@@H](O[C@@H]2O[C@H](C)C[C@H](N(C)C)[C@H]2O)[C@](C)(O)C[C@@H](C)CN(C)[C@H](C)[C@@H](O)[C@]1(C)O [Example, 9-deoxo-9a-aza-9a-methyl-9a-homoerythromycin A] |  |  |  |  |  |  |  |  |  | Water content ([1]; after 2 days at room temperature under normal air humidity conditions): 6.3%; Water content ([1]; after 13 days at room temperature under normal air humidity conditions): 6.3%; Water content ([1]; as obtained after drying, % w/w, K. Fischer): 6.0%; X-ray diffraction powder pattern ([1]; on day 1, on day 2 and on day 13): corresponds to the X-ray diffraction powder pattern of azithromycin in the form of a monohydrate; Crystallinity and X-ray powder diffraction pattern on storage [2]: maintains its crystallinity and its X-ray powder diffraction pattern; Degradation products on storage [2]: contains substantially no degration products
2 | CC[C@H]1OC(=O)[C@H](C)[C@@H](O[C@H]2C[C@@](C)(OC)[C@@H](O)[C@H](C)O2)[C@H](C)[C@@H](O[C@@H]2O[C@H](C)C[C@H](N(C)C)[C@H]2O)[C@](C)(O)C[C@@H](C)CN(C)[C@H](C)[C@@H](O)[C@]1(C)O [azithromycin according to the present invention] [9-deoxo-9a-aza-9a-methyl-9a-homoerythromycin A] | ~0.1 |  |  |  |  |  |  |  |  | Water content compared with week 0 ([3]; 40° C., 75% humidity, within 4 weeks and even 6 weeks): remains substantially the same as in week 0; Time for which the X-ray powder diffraction pattern (crystalline structure) is maintained ([3]; normal air humidity conditions, even at elevated temperatures): at least 2 weeks
3 | CC[C@H]1OC(=O)[C@H](C)[C@@H](O[C@H]2C[C@@](C)(OC)[C@@H](O)[C@H](C)O2)[C@H](C)[C@@H](O[C@@H]2O[C@H](C)C[C@H](N(C)C)[C@H]2O)[C@](C)(O)C[C@@H](C)CN(C)[C@H](C)[C@@H](O)[C@]1(C)O [azithromycin comprising 2.8% of water, 9-deoxo-9a-aza-9a-methyl-9a-homoerythromycin A, reference compound] | 6.6 | 99.7 | 2.8 | 2.5 | 2.8 | 6.1 | 3.3 | 3.6 | 91.6 | Degradation (%) ([3]; week 2, 75% humidity, 40° C., listed as azithromycin in the form of a monohydrate having a water content of 2.8% to 3.6%): 2.5%; Degradation (%) ([3]; week 6, 75% humidity, 40° C., listed as azithromycin in the form of a monohydrate having a water content of 2.8% to 3.6%): ~7%
4 | CC[C@H]1OC(=O)[C@H](C)[C@@H](O[C@H]2C[C@@](C)(OC)[C@@H](O)[C@H](C)O2)[C@H](C)[C@@H](O[C@@H]2O[C@H](C)C[C@H](N(C)C)[C@H]2O)[C@](C)(O)C[C@@H](C)CN(C)[C@H](C)[C@@H](O)[C@]1(C)O [azithromycin comprising 5.3% of water, 9-deoxo-9a-aza-9a-methyl-9a-homoerythromycin A] | 0.1 | 99.8 | 5.3 | 0.1 | 5.3 | 0.1 | 5.3 | 5.3 | 99.5 | POTENCY (%) ([3]; week 2): 98.9%; POTENCY (%) ([3]; week 4): 99.5%
